Like-named read-outs stand apart in the source and are kept apart here.
Test system: P. falciparum 3D7 gametocytes
Assay: alamarBlue gametocyte viability assay, strain 3D7
Format: cell-based, Plasmodium falciparum
Conditions: Malaria Box; for Max Resp: DMSO set at 0%, 100 nM epoxomicin set at -100%; for Curve Class / IC50: stages III-V 3D7 gametocytes; for IC50: 11 concentrations, 1:3 dilution; call rule not given here

SMILES | Max Resp | Curve Class | IC50 (read-out: IC50) | IC50
O=C(NCCCN1CCC(N2CCCCC2)CC1)C1=Cc2cc(Br)ccc2OC1 [MMV019995] | -99% | -1.1 | 5.26 µM | 
Cc1cc(N(C)C)nc(Nc2ccc(NC(=O)Nc3ccccc3)cc2)n1 [MMV020243] | -73% | -2.2 | 11.8 µM | 
O=C(NC1CCN(Cc2ccccc2)CC1)c1cc(-c2ccncc2)nc2ccc(Cl)cc12 [MMV020275] | -48% | -2.2 |  | Inactive
COc1ccc(-c2cn3c(C(=O)Nc4ccccc4Cl)c(-c4ccccc4)c4c3n2CCCC4)cc1 [MMV020403] | -73% | -2.2 | 23.5 µM | 
CCn1c(CN2CCN(Cc3ccccc3)CC2)nc2cc(NC(=O)c3cccs3)ccc21 [MMV020439] | -25% | 4 |  | Inactive
O=C(NC1CCN(Cc2ccccc2)CC1)c1cc(-c2cccnc2)nc2ccc(Cl)cc12 [MMV020490] | -61% | -2.2 | 29.6 µM | 
CC1CN(C(=O)c2sc3ccccc3c2Cl)CC(C)O1 (stereo not drawn) [MMV020492] | -36% | -2.2 |  | Inactive
CNCCCNc1ccnc2cc(Cl)ccc12 [MMV020500] | -63% | -1.2 | 0.235 µM | 
CN(C)CCCNCc1ccc(-c2ccc(F)c(Cl)c2)o1.Cl [MMV020505] | -98% | -1.1 | 3.32 µM | 
CCN1CCN(Cc2ccc(NC(=O)c3cc4ccc5cccnc5c4[nH]3)cc2)CC1 [MMV020548] | -56% | -3 |  | Inactive
CC1CCN(Cc2ccc(NC(=O)c3cc4ccc5cccnc5c4[nH]3)cc2)CC1 [MMV020549] | -75% | -2.2 | 14.8 µM | 
O=C(Nc1ccc(CN2CCOCC2)cc1)c1ccc(-c2cc(Cl)ccc2Cl)o1 [MMV020651] | -23% | 4 |  | Inactive
CCC(O)c1ccc(Br)cc1NC(=O)c1cccc(Cl)c1 (stereo not drawn) [MMV020654] | -37% | -1.2 | 2.09 µM | 
COc1ccc(-c2nonc2NC(=O)c2cccc(Cl)c2)cc1OC [MMV020660] | -67% | -2.2 | 23.5 µM | 
CC(=O)Nc1nnc(SCc2c(C)cc(C(C)(C)C)cc2C)s1 [MMV020700] | -2% | 4 |  | Inactive
COc1cc(-c2nc(-c3ccccc3)c(-c3ccccc3)[nH]2)cc(OC)c1O [MMV020750] | -55% | -2.2 | 37.2 µM | 
Cl.Oc1ccccc1CNCC12CC3CC(CC(C3)C1)C2 [MMV020788] | -43% | -1.2 | 0.105 µM | 
COc1ccc(Br)cc1C1Nc2ccc3ccccc3c2C2=C1C(=O)CC(c1ccccc1)C2 (stereo not drawn) [MMV020885] | -29% | 4 |  | Inactive
Cc1ccc(-c2nc3ccccc3o2)cc1NCc1cc(Cc2ccccc2)ccc1O [MMV020912] | -63% | -2.2 | 23.5 µM | 
CCC(=O)Nc1nnc(Cc2ccc(OC)c(OC)c2)s1 [MMV020942] | -19% | 4 |  | Inactive

SMILES | Max Resp | Curve Class | IC50 (read-out: IC50) | IC50
COc1cc(SC)ccc1C(=O)N1CCCC(C)C1 (stereo not drawn) [MMV056726] | -5% | 4 |  | Inactive
CN(C)c1ccc(N=Cc2ccc(N3CCOCC3)cc2)cc1 [MMV073843] | -98% | -1.1 | 2.35 µM | 
CCOc1ccc(C2N(C)c3ccccc3N2C)cc1 [MMV075490] | -38% | -2.2 |  | Inactive
Nc1nc(Nc2cccc(F)c2)nc2ccccc12 [MMV080034] | -61% | -2.2 | 29.6 µM | 
COc1ccc(C=C2SC(Nc3ccc(F)cc3)=NC2=O)c(OC)c1 [MMV084434] | -24% | 4 |  | Inactive
COc1cc2c(cc1OC)C1=NNC(=O)C1=NC(C)(C)C2 [MMV084940] | -133% | -1.1 | 1.32 µM | 
COc1ccccc1NC1=C(N2CCCCC2)C(=O)c2ccccc2C1=O [MMV085203] | -97% | -2.1 | 7.43 µM | 
CCOc1ccc(-n2cc(-c3ccccc3)c3c(SCc4cc(C)ccc4C)ncnc32)cc1 [MMV085471] | 1% | 4 |  | Inactive
Cc1ccc(C(=O)c2oc3ccc4c(C)cc(=O)oc4c3c2C)cc1 [MMV086103] | 0% | 4 |  | Inactive
COc1cc(CNCCc2ccc(Cl)cc2)cc(OC)c1O [MMV128432] | -81% | -2.1 | 11.8 µM | 
CC(C)(C)c1ccc(C(=O)Nc2nc3ccccc3s2)cc1 [MMV142383] | -10% | 4 |  | Inactive
COc1ccc2nc(C)cc(Nc3ccccc3O)c2c1 [MMV274073] | -66% | -2.2 | 23.5 µM | 
CCN(CC)CCNc1ncnc2c1[nH]c1ccc(Br)cc12 [MMV305841] | -95% | -1.1 | 5.26 µM | 
CCn1nc(-c2ccc(C(=O)OC)cc2)nc2c(=O)n(C)c(=O)nc1-2 [MMV306025] | -98% | -1.1 | 4.69 µM | 
COc1ccc(-c2nc(N3CCN(C(=O)C4CCCCC4)CC3)c3c4c(sc3n2)CCCC4)cc1 [MMV396594] | -12% | 4 |  | Inactive
CCOc1c(Cl)cc(CNCC(O)c2ccccc2)cc1OC (stereo not drawn) [MMV396632] | -76% | -2.2 | 9.35 µM | 
CCOc1cc(CNC(C)C(O)c2ccccc2)cc(Cl)c1OCC (stereo not drawn) [MMV396633] | -72% | -2.2 | 11.8 µM | 
O=C(NC1CCN(Cc2ccccc2)CC1)c1cc2nc(-c3ccc(Cl)s3)cc(C(F)(F)F)n2n1 [MMV396635] | -24% | 4 |  | Inactive
Cc1sc(NC(=O)c2ccccc2)c(C(c2cccs2)N2CCN(c3ccccc3)CC2)c1C (stereo not drawn) [MMV396652] | -1% | 4 |  | Inactive
Cc1sc(NC(=O)c2ccco2)c(C(c2cccnc2)N2CCC(Cc3ccccc3)CC2)c1C (stereo not drawn) [MMV396663] | -85% | -2.1 | 16.6 µM | 

SMILES | Max Resp | Curve Class | IC50 (read-out: IC50) | IC50
CCOC(=O)c1c(C)n(-c2ccccc2)c2ccc(OC(=O)c3cc(OC)c(OC)c(OC)c3)cc12 [MMV396664] | -4% | 4 |  | Inactive
COc1cc(C(=O)Nc2nc3c(cc4c5c(cccc53)CC4)s2)cc(OC)c1OC [MMV396665] | -24% | 4 |  | Inactive
Cc1cc(N2CCCC2)nc(Nc2ccc(NC(=O)CCc3ccccc3)cc2)n1 [MMV396669] | -75% | -2.2 | 11.8 µM | 
O=C(NCC(c1ccsc1)N1CCCCCC1)c1ccc(C(F)(F)F)cc1 (stereo not drawn) [MMV396672] | -37% | -2.2 |  | Inactive
COc1ccc(-c2cc3c(SCC(=O)Nc4cc(C(F)(F)F)ccc4Cl)nccn3n2)cc1 [MMV396679] | 0% | 4 |  | Inactive
Cc1ccc(-c2cc3c(SCC(=O)Nc4cc(C(F)(F)F)ccc4Cl)nccn3n2)cc1 [MMV396680] | -21% | 4 |  | Inactive
Cc1cc(NC(=O)c2cccc(C(F)(F)F)c2)n(-c2nc(-c3ccc4c(c3)OCO4)cs2)n1 [MMV396681] | -3% | 4 |  | Inactive
C[n+]1c2ccccc2nc2ccc(NCCO)cc21 [MMV396693] | -85% | -1.1 | 2.96 µM | 
CCN(CC)CCNc1ncnc2c1[nH]c1ccc(Cl)cc12 [MMV396703] | -81% | -1.1 | 3.72 µM | 
CN1CCN(c2ncnc3c2[nH]c2ccc(Cl)cc23)CC1 [MMV396704] | -57% | -2.2 | 37.2 µM | 
COc1cccc(Cn2c(Oc3ccccc3)nc3c2c(=O)n(C)c(=O)n3C)c1 [MMV396705] | -1% | 4 |  | Inactive
CC1(c2ccccc2)Nc2ccccc2-c2nc3ccccc3n21 (stereo not drawn) [MMV396715] | -84% | -2.1 | 16.6 µM | 
COc1ccc(CCN2C(=O)c3[nH]nc(-c4cc(Cl)c(C)cc4O)c3C2c2ccccc2F)cc1 (stereo not drawn) [MMV396717] | -70% | -2.2 | 23.5 µM | 
COc1cccc(C2(C)Nc3ccccc3-c3nc4ccccc4n32)c1 (stereo not drawn) [MMV396719] | -71% | -2.2 | 23.5 µM | 
N=c1n(CCN2CCCCC2)c2ccccc2n1CC(=O)c1ccc(Cl)c(Cl)c1 [MMV396723] | -92% | -2.1 | 14.8 µM | 
N#Cc1nc(Cc2cccc3ccccc23)oc1N1CCN(C(c2ccccc2)c2ccccc2)CC1 [MMV396726] | -1% | 4 |  | Inactive
OC(CNCC1CCCO1)Cn1c2ccc(Cl)cc2c2cc(Cl)ccc21 (stereo not drawn) [MMV396736] | -70% | -2.2 | 23.5 µM | 
CC(C)CNC(=O)c1c(N)n(CCc2ccccc2F)c2nc3ccccc3nc12 [MMV396744] | -70% | -1.2 | 3.32 µM | 
